Measured values: ChEMBL document CHEMBL1201862, “PubChem BioAssay data set” (2004)
Calls of active or inactive are those of the source. How the calls were made is not given here.

How the values were obtained:
[1] = target: T1, Exodeoxyribonuclease V (Escherichia coli (strain K12), UniProt P04993+P07648+P08394); assay: E. coli RecBCD inhibitors, dose response, counter-screen for AddAB inhibitor project, absorbance, V66 E. coli, mutant T4 phage (AID 492957); type: functional, cell-based, Escherichia coli str. K-12 substr. MG1655
T1 sequence (P04993 whole entry): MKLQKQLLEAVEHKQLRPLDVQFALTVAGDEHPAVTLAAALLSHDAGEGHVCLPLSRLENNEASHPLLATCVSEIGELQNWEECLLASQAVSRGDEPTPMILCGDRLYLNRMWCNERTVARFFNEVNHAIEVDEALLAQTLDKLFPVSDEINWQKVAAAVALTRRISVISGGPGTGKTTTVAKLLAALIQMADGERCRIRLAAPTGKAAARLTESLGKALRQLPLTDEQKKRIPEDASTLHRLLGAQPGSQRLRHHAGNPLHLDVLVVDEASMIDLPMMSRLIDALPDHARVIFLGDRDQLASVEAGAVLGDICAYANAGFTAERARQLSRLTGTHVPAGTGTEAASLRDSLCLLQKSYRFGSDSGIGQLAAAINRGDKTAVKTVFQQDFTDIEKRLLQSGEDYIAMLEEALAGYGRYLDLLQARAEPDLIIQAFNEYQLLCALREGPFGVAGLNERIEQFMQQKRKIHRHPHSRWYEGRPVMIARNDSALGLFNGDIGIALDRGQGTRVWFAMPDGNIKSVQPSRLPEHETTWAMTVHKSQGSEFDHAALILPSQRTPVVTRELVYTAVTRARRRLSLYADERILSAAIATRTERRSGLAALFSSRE
T1 sequence (P07648 whole entry): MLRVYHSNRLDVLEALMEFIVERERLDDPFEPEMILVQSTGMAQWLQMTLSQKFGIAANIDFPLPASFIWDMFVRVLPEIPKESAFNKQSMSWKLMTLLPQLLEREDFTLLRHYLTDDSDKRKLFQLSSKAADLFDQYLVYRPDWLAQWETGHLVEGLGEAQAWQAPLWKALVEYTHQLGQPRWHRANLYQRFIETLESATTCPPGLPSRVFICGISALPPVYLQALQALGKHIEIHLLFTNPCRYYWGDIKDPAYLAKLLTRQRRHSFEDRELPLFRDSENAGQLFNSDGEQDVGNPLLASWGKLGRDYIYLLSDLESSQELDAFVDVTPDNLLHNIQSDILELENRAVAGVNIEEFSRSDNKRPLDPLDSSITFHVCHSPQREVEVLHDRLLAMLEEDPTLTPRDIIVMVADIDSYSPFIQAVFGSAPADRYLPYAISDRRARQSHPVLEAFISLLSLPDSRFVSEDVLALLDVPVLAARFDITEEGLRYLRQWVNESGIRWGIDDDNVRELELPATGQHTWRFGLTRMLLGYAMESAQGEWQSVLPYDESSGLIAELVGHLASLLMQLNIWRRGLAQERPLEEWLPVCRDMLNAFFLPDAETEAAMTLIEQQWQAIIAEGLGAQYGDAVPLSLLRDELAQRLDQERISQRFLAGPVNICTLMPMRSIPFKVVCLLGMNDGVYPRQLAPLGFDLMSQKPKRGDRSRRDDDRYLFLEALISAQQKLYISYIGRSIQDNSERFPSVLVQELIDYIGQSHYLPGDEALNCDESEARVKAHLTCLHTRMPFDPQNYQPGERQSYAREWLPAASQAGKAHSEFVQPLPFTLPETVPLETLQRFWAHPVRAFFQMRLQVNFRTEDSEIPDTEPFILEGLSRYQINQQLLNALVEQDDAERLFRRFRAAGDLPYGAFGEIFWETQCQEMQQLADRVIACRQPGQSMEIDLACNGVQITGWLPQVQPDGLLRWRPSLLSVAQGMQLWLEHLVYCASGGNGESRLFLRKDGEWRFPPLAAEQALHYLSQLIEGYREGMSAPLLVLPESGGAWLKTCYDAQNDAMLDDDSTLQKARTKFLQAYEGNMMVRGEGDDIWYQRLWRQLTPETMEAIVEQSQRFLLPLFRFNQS
T1 sequence (P08394 whole entry): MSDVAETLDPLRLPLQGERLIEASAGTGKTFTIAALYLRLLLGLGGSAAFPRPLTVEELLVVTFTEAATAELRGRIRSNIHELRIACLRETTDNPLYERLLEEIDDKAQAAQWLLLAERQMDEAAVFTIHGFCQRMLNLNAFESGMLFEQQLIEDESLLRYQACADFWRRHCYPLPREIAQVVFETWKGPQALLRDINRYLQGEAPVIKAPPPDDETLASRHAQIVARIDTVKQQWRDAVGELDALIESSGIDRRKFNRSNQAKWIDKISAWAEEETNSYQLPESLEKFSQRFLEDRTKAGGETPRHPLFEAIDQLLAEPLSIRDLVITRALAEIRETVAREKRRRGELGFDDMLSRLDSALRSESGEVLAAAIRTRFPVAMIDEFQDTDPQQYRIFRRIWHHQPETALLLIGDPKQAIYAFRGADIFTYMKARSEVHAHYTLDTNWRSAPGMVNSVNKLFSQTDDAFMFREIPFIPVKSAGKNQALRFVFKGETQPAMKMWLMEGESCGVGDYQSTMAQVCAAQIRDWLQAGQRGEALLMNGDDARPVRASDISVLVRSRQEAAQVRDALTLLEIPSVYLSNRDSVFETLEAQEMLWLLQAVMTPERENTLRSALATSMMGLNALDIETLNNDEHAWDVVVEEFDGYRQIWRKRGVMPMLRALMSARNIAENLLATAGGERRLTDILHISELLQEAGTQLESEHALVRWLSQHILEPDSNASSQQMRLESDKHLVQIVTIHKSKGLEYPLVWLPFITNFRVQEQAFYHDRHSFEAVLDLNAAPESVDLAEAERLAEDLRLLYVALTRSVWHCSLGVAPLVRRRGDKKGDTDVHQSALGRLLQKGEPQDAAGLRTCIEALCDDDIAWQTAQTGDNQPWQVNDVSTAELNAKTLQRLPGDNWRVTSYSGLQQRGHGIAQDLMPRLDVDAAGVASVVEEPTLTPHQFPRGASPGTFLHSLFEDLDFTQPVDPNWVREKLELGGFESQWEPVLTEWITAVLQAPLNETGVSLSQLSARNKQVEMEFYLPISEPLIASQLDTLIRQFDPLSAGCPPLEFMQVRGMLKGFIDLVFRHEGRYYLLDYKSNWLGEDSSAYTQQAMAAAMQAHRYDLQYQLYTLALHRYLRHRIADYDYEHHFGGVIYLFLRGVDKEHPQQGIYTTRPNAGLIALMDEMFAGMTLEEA

[2] = target: cAMP-dependent protein kinase catalytic subunit alpha (Homo sapiens, UniProt P17612); type: functional

| Ki [2] | pKi [2] | SMILES | IC50 [1] |
| --- | --- | --- | --- |
| – | – | CC(C)CC(=O)NC(c1cccs1)c1ccc2cccnc2c1O (stereo not drawn) | > 119 µM (inactive) |
| 0.00794 µM (active) | 8.1 | NC1CCC(Nc2nc(Cl)cc(-c3c[nH]c4ncccc34)n2)CC1 (stereo not drawn) | – |
